Reference: patent publication US8334304B2, “Aminosulfonyl substituted 4-(aminomethyl)-piperidine benzamides as 5HT4-antagonists” (Janssen Pharmaceutica N.V., priority 2003, dated 2012)
Structures can show the parent of a compound that is named as a salt. Where two headings read alike, the source gives them in different places.

Tests used:
[1] = Metabolic stability: incubation with liver microsomes and NADPH-generating system, LC-MS; type: in vitro ADME; conditions: compound 5 μM, microsomes 1 mg/ml, 37 degrees Celsius
Method: Sub-cellular tissue preparations were made according to Gorrod et al. (Xenobiotica 5: 453-462, 1975) by centrifugal separation after mechanical homogenization of tissue. Liver tissue was rinsed in ice-cold 0.1 M Tris-HCl (pH 7.4) buffer to wash excess blood. Tissue was then blotted dry, weighed and chopped coarsely using surgical scissors. The tissue pieces were homogenized in 3 volumes of ice-cold 0.1 M phosphate buffer (pH 7.4).
Tissue homogenates were centrifuged at 9000×g for 20 minutes at 4° C. The resulting supernatant was stored at −80° C. and is designated ‘S9’.
The S9 fraction can be further centrifuged at 100.000×g for 60 minutes (4° C.). The resulting supernatant was carefully aspirated, aliquoted and designated ‘cytosol’. The pellet was re-suspended in 0.1 M phosphate buffer (pH 7.4) in a final volume of 1 ml per 0.5 g original tissue weight and designated ‘microsomes’.
All sub-cellular fractions were aliquoted, immediately frozen in liquid nitrogen and stored at −80° C. until use.
Control samples contained the same material but the microsomes were replaced by heat inactivated (10 minutes at 95 degrees Celsius) microsomes. Recovery of the compounds in the control samples was always 100%.
The mixtures were preincubated for 5 minutes at 37 degrees Celsius. The reaction was started at time point zero (t=0) by addition of 0.8 mM NADP and the samples were incubated for 60 minutes (t=60). The reaction was terminated by the addition of 2 volumes of DMSO. Then the samples were centrifuged for 10 minutes at 900×g and the supernatants were stored at room temperature for no longer as 24 hours before analysis. All incubations were performed in duplo. Analysis of the supernatants was performed with LC-MS analysis. Elution of the samples was performed on a Xterra MS C18 (50×4.6 mm, 5 μm, Waters, US). An Alliance 2790 (Supplier: Waters, US) HPLC system was used. Elution was with buffer A (25 mM ammoniumacetate (pH 5.2) in H2O/acetonitrile (95/5)), solvent B being acetonitrile and solvent C methanol at a flow rate of 2.4 ml/min. The gradient employed was increasing the organic phase concentration from 0% over 50% B and 50% C in 5 min up to 100% B in 1 minute in a linear fashion and organic phase concentration was kept stationary for an additional 1.5 minutes. Total injection volume of the samples was 25 μl.
A Quatro triple quadrupole mass spectrometer fitted with and ESP source was used as detector. The source and the desolvation temperature were set at 120 and 350° C. respectively and nitrogen was used as nebuliser and drying gas. Data were acquired in positive scan mode (single ion reaction). Cone voltage was set at 10 V and the dwell time was 1 second.
Metabolic stability was expressed as % metabolism of the compound after 60 minutes (equation given as example) of incubation in the presence of active microsomes (E(act))

[2] = target: T1, h5-HT4b (Homo sapiens, UniProt Q13639); assay: 5HT4 antagonism: [3H]GR113808 binding to membranes of h5-HT4b-HEK 293 clone 9 cells; conditions: 30 min at 25° C.
T1 construct: expressed in transfected cells; host or cells: HEK 293 (clone 9), membrane preparation
T1 sequence (Q13639 whole entry): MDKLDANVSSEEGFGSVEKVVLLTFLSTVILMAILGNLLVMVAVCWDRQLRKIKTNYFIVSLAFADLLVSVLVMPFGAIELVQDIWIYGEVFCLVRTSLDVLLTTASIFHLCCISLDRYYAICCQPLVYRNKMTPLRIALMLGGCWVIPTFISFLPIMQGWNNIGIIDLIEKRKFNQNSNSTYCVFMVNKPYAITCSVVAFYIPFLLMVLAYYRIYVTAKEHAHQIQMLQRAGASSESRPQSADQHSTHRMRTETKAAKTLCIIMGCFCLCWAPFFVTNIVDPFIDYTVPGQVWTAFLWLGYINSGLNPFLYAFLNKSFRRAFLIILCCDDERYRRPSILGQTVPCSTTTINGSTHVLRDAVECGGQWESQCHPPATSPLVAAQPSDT
Method: The cells were then scraped from the plates and suspended in 50 mM Tris-HCl buffer, pH 7.4 and harvested by centrifugation at 23,500 rpm for 10 minutes. The pellet was resuspended in 5 mM Tris-HCl, pH 7.4 and homogenized with an Ultra Turrax homogenizer. The membranes were collected by centrifugation at 30,000 rpm for 20 min, resuspended in 50 mM Tris-HCl pH 7.4 and stored at −80° C. […] 50 μl of 10% DMSO was added for total binding. 50 μl of 1 μM of (+)-trans-(1-butyl-3-hydroxy-4-piperidinyl)methyl 8-amino-7-chloro-2,3-dihydro-1,4-benzodioxin-5-carboxylate (a proprietary 5HT4 agonist of Janssen Pharmaceutica) was added for determination of non-specific binding. The [^3H]GR113808 assay buffer was 50 mM HEPES-NaOH, pH 7.4. The mixtures were incubated for 30 min at 25° C. The incubation was terminated by filtration over a Unifilter 96 GF/B presoaked in 0.1% polyethylenimine, followed by six washing steps with 50 mM HEPES-NaOH, pH 7.4.

[3] = displacement of 0.1 nM [3H]GR113808, membranes of h5-HT4b-HEK 293 cells, read-out: pIC50 (converted)

SMILES	% metabolised compound after 60 minutes [1] [%]	IC50 [2, 3] [nM]	melting point [°C]	IC50 ([2]; pIC50, displacement of 0.1 nM [3H]GR113808, membranes of h5-HT4b-HEK 293 cells) [nM]
Cc1cc2c(c(C(=O)NCC3CCN(CCCCS(N)(=O)=O)CC3O)c1)OCCCO2 (stereo not shown) [Compound 38]	3	11.2	–	–
CNS(=O)(=O)CCCN1CCC(CNC(=O)c2cc(C)cc3c2OCCCO3)C(O)C1 (stereo not shown) [Compound 24]	53	2.88	–	–
Cc1ccc(C(=O)NCC2CCN(CCCS(=O)(=O)Nc3ccccc3)CC2O)c2c1OCCCO2 (stereo not shown) [Compound 10]	–	1.29	–	–
COC1CN(CCCCS(N)(=O)=O)CCC1CNC(=O)c1cc(Cl)cc2c1OCCCO2 (stereo not shown) [Compound 45]	–	1.38	–	–
Nc1cc2c(c(C(=O)NC[C@@H]3CCN(CCCS(N)(=O)=O)C[C@H]3O)c1)OCCCO2 (relative stereo) [Compound 8]	–	50.1	186	–
COc1ccc(C(=O)NC[C@@H]2CCN(CCCCS(N)(=O)=O)C[C@H]2O)c2c1OCCCO2 [Compound 32]	0	3.63	–	–
NS(=O)(=O)CCN1CC[C@@H](CNC(=O)c2cc(Cl)cc3c2OCCCO3)[C@H](O)C1 [Compound 22]	28.5	–	162	5.37
Cc1cc2c(c(C(=O)NC[C@@H]3CCN(CCCS(=O)(=O)Nc4ccccc4)C[C@H]3O)c1)OCCCO2 (relative stereo) [Compound 12]	–	1.62	–	–
CNS(=O)(=O)CCCN1CC[C@@H](CNC(=O)c2ccc(C)c3c2OCCCO3)[C@H](O)C1 [Compound 34]	–	1.15	–	–
Cc1ccc(C(=O)NC[C@@H]2CCN(CCCC(=O)NS(C)(=O)=O)C[C@H]2O)c2c1OCCCO2 [Compound 27]	5	12	–	–
O=C(NCC1CCN(CCCS(=O)(=O)Nc2ccccc2)CC1O)c1cc(Cl)cc2c1OCCCO2 (stereo not shown) [Compound 17]	–	1.78	–	–
COC1CN(CCCS(N)(=O)=O)CCC1CNC(=O)c1cc(F)cc2c1OCCCO2 (stereo not shown) [Compound 46]	–	4.17	–	–
NS(=O)(=O)CCCCN1CC[C@@H](CNC(=O)c2cc(Cl)c(Cl)c3c2OCCCO3)[C@H](O)C1 (relative stereo) [Compound 30]	12	1.7	–	–
Cc1cc2c(c(C(=O)NCC3CCN(CCCS(N)(=O)=O)CC3O)c1)OCCCO2 (stereo not shown) [Compound 19]	14	3.39	–	–
COC1CN(CCCS(N)(=O)=O)CCC1CNC(=O)c1cc(C#N)cc2c1OCCCO2 (stereo not shown) [Compound 41]	–	56.2	–	–
Cc1cc2c(c(C(=O)NC[C@@H]3CCN(CCCS(=O)(=O)NC(C)C)C[C@H]3O)c1)OCCCO2 (relative stereo) [Compound 11]	–	3.98	–	–
Cc1cc2c(c(C(=O)NCC3(O)CCN(CCCCS(N)(=O)=O)CC3)c1)OCCCO2 [Compound 48]	6	20.9	–	–
Cc1ccc(C(=O)NC[C@@H]2CCN(CCCC(=O)NS(C)(=O)=O)C[C@H]2O)c2c1OCCCO2 (as salt: hydrochloride) [Compound 27]	–	–	142	–
Cc1ccc(C(=O)NC[C@@H]2CCN(CCS(N)(=O)=O)C[C@H]2O)c2c1OCCCO2 [Compound 23]	8	5.75	–	–

Second part, the molecule after the results:

% metabolised compound after 60 minutes [1] [%]	IC50 [2, 3] [nM]	melting point [°C]	IC50 ([2]; pIC50, displacement of 0.1 nM [3H]GR113808, membranes of h5-HT4b-HEK 293 cells) [nM]	SMILES
15	0.407	–	–	NS(=O)(=O)CCCCN1CC[C@@H](CNC(=O)c2cc(F)cc3c2OCCCO3)[C@H](O)C1 [Compound 35]
18	0.891	–	–	NS(=O)(=O)CCCCN1CCC(CNC(=O)c2cc(Cl)c(Br)c3c2OCCCO3)C(O)C1 (stereo not shown) [Compound 31]
9	28.8	–	–	COc1ccc(C(=O)NCC2CCN(CCCCS(N)(=O)=O)CC2OC)c2c1OCCO2 (stereo not shown) [Compound 6]
0	100	–	–	COc1ccc(C(=O)NCC2(O)CCN(CCCCS(N)(=O)=O)CC2)c2c1OCCCO2 [Compound 47]
21	3.02	–	–	NS(=O)(=O)CCCN1CCC(CNC(=O)c2cc(Cl)cc3c2OCCCO3)C(O)C1 (stereo not shown) [Compound 21]
8.5	8.51	–	–	Cc1cc2c(c(C(=O)NC[C@@H]3CCN(CCS(N)(=O)=O)C[C@H]3O)c1)OCCCO2 [Compound 25]
13	0.676	–	–	NS(=O)(=O)CCCCN1CC[C@@H](CNC(=O)c2cc(Cl)cc3c2OCCCO3)[C@H](O)C1 [Compound 26]
27	3.72	–	–	CO[C@@H]1CN(CCCCS(N)(=O)=O)CC[C@H]1CNC(=O)c1cc(F)cc2c1OCCCO2 (relative stereo) [Compound 44]
0	158	–	–	COc1ccc(C(=O)NCC2CCN(CCCCS(N)(=O)=O)CC2O)c2c1OCCCO2 (stereo not shown) [Compound 40]
–	2.19	–	–	CNS(=O)(=O)CCCN1CC[C@@H](CNC(=O)c2cc(Cl)cc3c2OCCCO3)[C@H](O)C1 (relative stereo) [Compound 33]
–	1.95	–	–	CC(C)NS(=O)(=O)CCCN1CCC(CNC(=O)c2cc(Cl)cc3c2OCCCO3)C(O)C1 (stereo not shown) [Compound 14]
3	1.86	–	–	NS(=O)(=O)CCCCN1CC[C@@H](CNC(=O)c2cc(F)cc3c2OCCO3)[C@H](O)C1 [Compound 7]
7	5.25	–	–	Cc1ccc(C(=O)NCC2CCN(CCCS(N)(=O)=O)CC2O)c2c1OCCCO2 (stereo not shown) [Compound 18]
2	4.68	–	–	Cc1cc2c(c(C(=O)NCC3CCN(CCCCS(N)(=O)=O)CC3O)c1)OCCCO2 (stereo not shown) [Compound 20]
36	35.5	110	–	CS(=O)(=O)NC(=O)CCCN1CC[C@@H](CNC(=O)c2cc(Cl)cc3c2OCCCO3)[C@H](O)C1 [Compound 15]
–	1.51	–	–	COC1CN(CCCCS(N)(=O)=O)CCC1CNC(=O)c1cc(Cl)c(Cl)c2c1OCCCO2 (stereo not shown) [Compound 42]
–	1.7	–	–	COC1CN(CCCCS(N)(=O)=O)CCC1CNC(=O)c1cc(Cl)c(Br)c2c1OCCCO2 (stereo not shown) [Compound 43]
–	3.39	–	–	Cc1ccc(C(=O)NCC2CCN(CCCS(=O)(=O)NC(C)C)CC2O)c2c1OCCCO2 (stereo not shown) [Compound 13]
2	12.6	–	–	NS(=O)(=O)CCCCN1CCC(CNC(=O)c2cc(F)cc3c2OCCCO3)C(O)C1 (stereo not shown) [Compound 39]
